Experimental data as given in PubChem BioAssay AID248 (DTP/NCI, 2004).
“And” between values parts separate entries of the source, which are not always exact repeats. Identical values can stand only once. Toxic doses and inconclusive results are not listed. Cut-off read from the data, not from the text of the source: active = T/C of 150% or more; inactive = T/C below 125%.

System: L1210 leukemia ip in BDF1 mice, survival T/C
Experiment: NCI In Vivo Anticancer Drug Screen. Data for tumor model L1210 Leukemia (intraperitoneal) in B6D2F1 (BDF1) mice
Settings: endpoint: mean survival time, higher = longer survival
Outline: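 Read-out is survival time, reported as the treated-group measurement over the vehicle-control measurement.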

[1] = dose: 50.0 mg/kg/injection, schedule: Q01DX009 (ip), vehicle: saline
[2] = dose: 100.0 mg/kg/injection, schedule: Q01DX009 (ip), vehicle: Klucel (hydroxypropylcellulose) (HPC)
[3] = dose: 200.0 mg/kg/injection, schedule: Q01DX009 (ip), vehicle: Klucel (hydroxypropylcellulose) (HPC)
[4] = dose: 400.0 mg/kg/injection, schedule: Q01DX009 (ip), vehicle: Klucel (hydroxypropylcellulose) (HPC)
[5] = dose: 100.0 mg/kg/injection, schedule: Q04DX003 (ip), vehicle: saline with Tween-80
[6] = dose: 100.0 mg/kg/injection, schedule: Q01DX001 (ip), vehicle: carboxymethylcellulose (CMC)
[7] = dose: 200.0 mg/kg/injection, schedule: Q01DX001 (ip), vehicle: carboxymethylcellulose (CMC)
[8] = dose: 400.0 mg/kg/injection, schedule: Q01DX001 (ip), vehicle: carboxymethylcellulose (CMC)
[9] = dose: 50.0 mg/kg/injection, schedule: Q01DX009 (ip), vehicle: Klucel (hydroxypropylcellulose) (HPC)

Measured: T/C

CC[N+](C)(C)c1ncnc2nc[nH]c12
inactive: [1] 103 % of control | dose: 50.0 mg/kg/injection, schedule: Q04DX003 (ip), vehicle: saline 95 % of control | dose: 100.0 mg/kg/injection, schedule: Q01DX001 (ip), vehicle: saline 106 % of control | dose: 100.0 mg/kg/injection, schedule: Q01DX009 (ip), vehicle: saline 110 % of control | dose: 100.0 mg/kg/injection, schedule: Q04DX003 (ip), vehicle: saline 100 % of control | dose: 200.0 mg/kg/injection, schedule: Q01DX001 (ip), vehicle: saline 111 % of control | dose: 200.0 mg/kg/injection, schedule: Q04DX003 (ip), vehicle: saline 96 % of control

CC(C)Oc1ccc(C(N)=S)c2ccccc12
inactive: dose: 100.0 mg/kg/injection, schedule: Q01DX001 (ip), vehicle: Klucel (hydroxypropylcellulose) (HPC) 105 % of control | dose: 200.0 mg/kg/injection, schedule: Q01DX001 (ip), vehicle: Klucel (hydroxypropylcellulose) (HPC) 109 % of control | dose: 400.0 mg/kg/injection, schedule: Q01DX001 (ip), vehicle: Klucel (hydroxypropylcellulose) (HPC) 102 % of control

CN(C(=O)/C=C/c1ccc([N+](=O)[O-])cc1)c1ccc(S(=O)(=O)F)cc1
inactive: [2] 91 % of control | [3] 94 % of control | [4] 97 % of control

CC1CCCCN1C(=O)Nc1cccc(F)c1 (stereo not drawn)
inactive: [2] 104 % of control | [3] 102 % of control | [4] 111 % of control

C=CCCCCC/C=C/CCCCCC
inactive: dose: 100.0 mg/kg/injection, schedule: Q01DX009 (ip), vehicle: saline with Tween-80 89 % of control | dose: 200.0 mg/kg/injection, schedule: Q01DX009 (ip), vehicle: saline with Tween-80 92 % of control

CCCCCCCC1N(C)CCCN1C
inactive: dose: 25.0 mg/kg/injection, schedule: Q01DX009 (ip), vehicle: saline with Tween-80 88 % of control | dose: 25.0 mg/kg/injection, schedule: Q04DX003 (ip), vehicle: saline with Tween-80 93 % of control | dose: 50.0 mg/kg/injection, schedule: Q01DX009 (ip), vehicle: saline with Tween-80 95 % of control | dose: 50.0 mg/kg/injection, schedule: Q04DX003 (ip), vehicle: saline with Tween-80 96 % of control | [5] 95 % of control and 92 % of control

O=[N+]([O-])c1cc(N(c2ccccc2)c2ccccc2)cc([N+](=O)[O-])c1
inactive: [6] 103 % of control | [7] 108 % of control | [8] 103 % of control

Cc1ccc(S(=O)(=O)OCC2OCOC2C2OCOC2C)cc1 (stereo not drawn)
inactive: dose: 100.0 mg/kg/injection, schedule: Q01DX001 (ip), vehicle: saline with Tween-80 104 % of control | dose: 200.0 mg/kg/injection, schedule: Q01DX001 (ip), vehicle: saline with Tween-80 93 % of control | dose: 400.0 mg/kg/injection, schedule: Q01DX001 (ip), vehicle: saline with Tween-80 97 % of control

Cn1c(=O)c2c(nc(Cc3ccc(NC(=O)c4ccc(C(=O)Nc5ccc(Cc6nc7c(c(=O)n(C)c(=O)n7C)n6C)cc5)cc4)cc3)n2C)n(C)c1=O
inactive: dose: 50.0 mg/kg/injection, schedule: Q01DX001 (ip), vehicle: other 97 % of control | dose: 100.0 mg/kg/injection, schedule: Q01DX001 (ip), vehicle: other 94 % of control | dose: 200.0 mg/kg/injection, schedule: Q01DX001 (ip), vehicle: other 94 % of control | dose: 400.0 mg/kg/injection, schedule: Q01DX001 (ip), vehicle: other 92 % of control

CCC(COC(=O)c1ccc([N+](=O)[O-])cc1)NCCC1CCCCC1 (stereo not drawn)
inactive: dose: 75.0 mg/kg/injection, schedule: Q01DX001 (ip), vehicle: saline 101 % of control | dose: 150.0 mg/kg/injection, schedule: Q01DX001 (ip), vehicle: saline 104 % of control | dose: 300.0 mg/kg/injection, schedule: Q01DX001 (ip), vehicle: saline 103 % of control

COCCOCCOC(=O)C(CO)(CC(CO)(C(C)=O)C(=O)OCCOCCOC)C(C)=O (stereo not drawn)
inactive: dose: 222.0 mg/kg/injection, schedule: Q01DX Z (ip), vehicle: saline 92 % of control | dose: 333.0 mg/kg/injection, schedule: Q01DX Z (ip), vehicle: saline 102 % of control | dose: 500.0 mg/kg/injection, schedule: Q01DX Z (ip), vehicle: saline 107 % of control

CC(=O)NC(CSC(c1ccccc1)(c1ccccc1)c1ccccc1)C(=O)O (stereo not drawn)
inactive: dose: 25.0 mg/kg/injection, schedule: Q01DX009 (ip), vehicle: saline 102 % of control | [1] 96 % of control

O=[N+]([O-])c1ccc(-c2ccccc2Cl)c([N+](=O)[O-])c1
inactive: [6] 91 % of control | [7] 91 % of control | [8] 97 % of control

Nc1ccccc1SC(CC(=O)c1ccccc1)c1ccccc1 (stereo not drawn)
inactive: dose: 100.0 mg/kg/injection, schedule: Q04DX002 (ip), vehicle: saline with Tween-80 93 % of control and 96 % of control | [5] 91 % of control | dose: 200.0 mg/kg/injection, schedule: Q04DX002 (ip), vehicle: saline with Tween-80 100 % of control and 103 % of control | dose: 200.0 mg/kg/injection, schedule: Q04DX003 (ip), vehicle: saline with Tween-80 93 % of control and 109 % of control | dose: 400.0 mg/kg/injection, schedule: Q04DX002 (ip), vehicle: saline with Tween-80 98 % of control and 104 % of control | dose: 400.0 mg/kg/injection, schedule: Q04DX003 (ip), vehicle: saline with Tween-80 95 % of control and 91 % of control

O=[N+]([O-])C(Cl)(Cl)C(Cl)(Cl)[N+](=O)[O-]
inactive: dose: 2.5 mg/kg/injection, schedule: Q01DX009 (ip), vehicle: other 97 % of control | dose: 2.5 mg/kg/injection, schedule: Q04DX003 (ip), vehicle: other 100 % of control | dose: 5.0 mg/kg/injection, schedule: Q01DX001 (ip), vehicle: saline 94 % of control | dose: 5.0 mg/kg/injection, schedule: Q01DX009 (ip), vehicle: other 95 % of control | dose: 5.0 mg/kg/injection, schedule: Q04DX003 (ip), vehicle: other 102 % of control | dose: 10.0 mg/kg/injection, schedule: Q01DX001 (ip), vehicle: saline 94 % of control | dose: 10.0 mg/kg/injection, schedule: Q01DX009 (ip), vehicle: other 90 % of control | dose: 10.0 mg/kg/injection, schedule: Q04DX003 (ip), vehicle: other 88 % of control | dose: 20.0 mg/kg/injection, schedule: Q01DX001 (ip), vehicle: saline 92 % of control | dose: 40.0 mg/kg/injection, schedule: Q01DX001 (ip), vehicle: saline 86 % of control | dose: 80.0 mg/kg/injection, schedule: Q01DX001 (ip), vehicle: saline 100 % of control

ClC(Cl)(Cl)c1ccc(C(Cl)(Cl)Cl)cc1
inactive: dose: 12.5 mg/kg/injection, schedule: Q01DX009 (ip), vehicle: Klucel (hydroxypropylcellulose) (HPC) 96 % of control | dose: 25.0 mg/kg/injection, schedule: Q01DX009 (ip), vehicle: Klucel (hydroxypropylcellulose) (HPC) 104 % of control | [9] 94 % of control and 97 % of control | [2] 94 % of control | dose: 100.0 mg/kg/injection, schedule: Q04DX003 (ip), vehicle: Klucel (hydroxypropylcellulose) (HPC) 105 % of control | dose: 200.0 mg/kg/injection, schedule: Q04DX003 (ip), vehicle: Klucel (hydroxypropylcellulose) (HPC) 91 % of control

C(Sc1ccccc1)=C(Sc1ccccc1)Sc1ccccc1
inactive: dose: 6.25 mg/kg/injection, schedule: Q01DX009 (ip), vehicle: other 94 % of control | dose: 125.0 mg/kg/injection, schedule: Q01DX009 (ip), vehicle: other 105 % of control | dose: 250.0 mg/kg/injection, schedule: Q01DX009 (ip), vehicle: other 98 % of control

Cc1c(Cl)c(=O)[nH]c2ccccc12
inactive: [9] 101 % of control | [2] 97 % of control | [3] 106 % of control
